Measured values taken from patent US20240269109A1 (STICHTING MEDISCHE KLINIEK VELSEN, priority 2021, published 2024).

Experiments:
[1] = high doses for local anesthesia; cited from earlier work
[2] = off-label patient trial, oromucosal/sublingual formulation; format: in vivo, human
Method: The formulation of the invention was used “off-label” to treat a number of patients to determine its effect as set out in Example 2.
In the Netherlands, 22 patients were treated with the formulation of Example 1a as follows: […]
10 patients had COVID-19 symptoms (and were positive and were seen by their general practitioner). All 10 patients presented with early signs of respiratory distress; tachypnea (more than 30 breaths per minute), high fever and dry cough and a decreased Sp02<90.
6 patients had post-COVID respiratory complaints. They were experiencing long-term complaints, ranging from coughing, fatigue and shortness of breath to anxiety and physical limitations.
6 patients suffered with various autoimmune diseases as follows: • 1 patient had rheumatoid arthritis. • 1 patient had scleroderma; • 1 patient had dermatomyositis; • 1 patient had morbus Parkinson; • 2 patients had psoriasis.
All patients were given the formulation as described in Example 1a above, up to 6 times a day, for up to 2 weeks.

For `CCN(CC)CC(=O)Nc1c(C)cccc1C` [lidocaine], the “dose at which methemoglobinemia can occur” value [1] is given as 4-5 mg/kg bodyweight, the “response of COVID-19 patients with early signs of respiratory distress” value ([2]; 10 patients, sublingual) is given as “responded well” and the “effective adult unit dose” value ([2]; delivered oromucosally or sublingually, 4-6 times a day) is given as 60 to 100 mg.
